Laboratory results: ChEMBL document CHEMBL1154583, “Cytotoxic lavandulyl flavanones from Sophora flavescens” (J Nat Prod, 2000)
Calls of active or inactive are those of the source. No cut-off for these calls is given here.

Tested on: HL-60
Test: Cytotoxicity against human HL60 cells after 96 hrs by MTT assay
Assay type: functional, cell-based
Details: for IC50: HL-60, 96 h

With `C=C(C)[C@H](CC=C(C)C)Cc1c(O)cc(OC)c2c1O[C@H](c1ccc(O)cc1OC)CC2=O` the IC50 was 13.7 µM.

`Oc1ccc2c(c1)OC[C@H]1c3cc4c(cc3O[C@@H]21)OCO4` was tested, and the Activity was “inactive”.

In the case of `COc1ccc(-c2coc3cc(O)ccc3c2=O)cc1`, the Activity is reported as “inactive”.

Compound `C=C(C)[C@H](CC=C(C)C)Cc1c(O)cc(O)c2c1O[C@H](c1ccc(O)cc1O)CC2=O` [SOPHORAFLAVANONE G] has an IC50 of 12.5 µM.

With `C=C(C)C(CC=C(C)C)Cc1c(O)cc(OC)c2c1O[C@H](c1ccc(O)cc1O)CC2=O` (stereo not given in full) [KURARINONE] the IC50 was 18.5 µM.
